# Activity calls are given as the source filed them. No cut-off for these calls is given here.
# Columns and labels:
# Type in all cases: functional, cell-based
# HL-60 [1] = test: Induction of apoptosis in HL60 cells assessed as DNA fragmentation at 3 uM after 4 hrs by gel electrophoresis; settings: Homo sapiens
# HL-60 [2] = test: Induction of apoptosis in HL60 cells assessed as PARP cleavage at 3 uM by Western blot; settings: Homo sapiens
# HL-60 [3] = test: Antiproliferative activity against HL60 cells by MTT assay; settings: Homo sapiens
# U-937 [4] = test: Antiproliferative activity against human U937 cells by MTT assay
# HL-60 [5] = test: Induction of apoptosis in HL60 cells assessed as cytochrome C release at 3 uM by Western blot; settings: Homo sapiens
# HL-60 [6] = test: Induction of apoptosis in HL60 cells assessed as chromatin condensation at 3 uM after 4 hrs by fluorescence microscopy; settings: Homo sapiens
# U-937 [7] = test: Induction of apoptosis in U937 cells assessed as caspase 3 cleavage at 3 uM by Western blot; settings: Homo sapiens
# HL-60 [8] = test: Induction of apoptosis in HL60 cells assessed as caspase 3 cleavage at 3 uM by Western blot; settings: Homo sapiens
# SK-MEL-1 = test: Antiproliferative activity against human SK-MEL1 cells by MTT assay
# U-937 [9] = test: Induction of apoptosis in U937 cells assessed as DNA fragmentation at 3 uM after 4 hrs by gel electrophoresis; settings: Homo sapiens
# HL-60 [10] = test: Induction of apoptosis in HL60 cells assessed as morphological changes at 3 uM after 4 hrs by phase contrast microscopy; settings: Homo sapiens
Compound,Activity (HL-60 [1]),Activity (HL-60 [2]),IC50 (HL-60 [3]) [nM],IC50 (U-937 [4]) [nM],Activity (HL-60 [5]),Activity (HL-60 [6]),Activity (U-937 [7]),Activity (HL-60 [8]),IC50 (SK-MEL-1) [nM],Activity (U-937 [9]),Activity (HL-60 [10])
C=C(Br)C(=O)Nc1ccc2c(c1)cc(C(=O)NCCCCCCNc1nsc3nc4ccccc4n13)n2C,Active,Active,840,890,Active,Active,Active,Active,4500,Active,Active
C=C(Br)C(=O)Nc1ccc2[nH]c(C(=O)NCCCNc3nsc4nc5ccccc5n34)cc2c1,Active,Active,290,240,Active,Active,Active,Active,2090,Active,Active
C=C(Br)C(=O)Nc1ccc2[nH]c(C(=O)NCCCCCCNc3nsc4nc5ccccc5n34)cc2c1,Active,Active,550,400,Active,Active,Active,Active,3020,Active,Active
C=C(Br)C(=O)Nc1ccc2oc(C(=O)NCCCCCCNc3nsc4nc5ccccc5n34)cc2c1,Active,Active,1720,740,Active,Active,Active,Active,8950,Active,Active
C=C(Br)C(=O)Nc1ccc2sc(C(=O)NCCCCCCNc3nsc4nc5ccccc5n34)cc2c1,Active,Active,1240,910,Active,Active,Active,Active,8040,Active,Active

# — ChEMBL document CHEMBL1139187, “Hybrid molecules containing benzo[4,5]imidazo[1,2-d][1,2,4]thiadiazole and alpha-bromoacryloyl moieties as potent apoptosis inducers on human myeloid leukaemia cells” (Bioorg Med Chem Lett, 2007)
